Data as given in patent US6713506B2, “Tea polyphenol esters and analogs thereof for cancer prevention and treatment” (University of South Florida, priority 2000, dated 2004).

Tests used:
[1] = system: p27, IκB-α, ubiquitinated proteins, Bax in Jurkat T cells; assay: Western blot of proteasome substrates in Jurkat T cells; type: cell-based, human; conditions: for levels of p27: intact Jurkat T cells, 1 or 10 μM, 12 h
Description: FIG. 5. Western blot analysis. A, Jurkat T cells are treated with 1 or 10 μM of EGCG or EGC for 12 h, or B, C, 25 μM of EGCG for various times, followed by Western blot assay using specific antibodies to p27, IκB-α, ubiquitin or actin, as indicated. MWs of IκB-α and actin are 40 and 43 kDa, respectively. The band of 56 kDa, indicated by an arrow in (B), is an ubiquitinated or phosphorylated form of IκB-α. The bands indicated in (C) are ubiquitin-containing proteins. D, LNCaP cells are treated with 1 or 10 μM of EGCG for 12 h. Western bot is performed as described above. E, F, Jurkat T cells are pretreated with 10 μg/ml cycloheximide for 2 hr, followed by co-incubation with 1 or 10 μM of EGCG for 8 or 12 hr as indicated. The p70 is a putative ubiquitinated p27-containing complex (An et al., 1998, Cell Death Differ 5: 1062-75).
FIG. 11. Western blot assay. Western blot assay is performed using specific antibodies to p27^Kip, Bax, poly(ADP-ribose) polymerase (PARP), or actin. Jurkat T cells are treated with 50 μg/ml of tannic acid for 4, 12 or 24 h. Cells are harvested and lysated using the whole lysis buffer (50 mM Tris-HCl, pH 8.0, 5 mM EDTA, 150 mM NaCl, 0.5% NP-40, 0.5 mM PMSF, and 0.5 mM DTT). Cell lysates (70 μg) are separated on a sodium dodecyl sulfate-polyacrylamide gel electrophoresis (SDS-PAGE), followed by Western blot analysis.
Western blot analysis—Western blot assay is performed as described previously (An et al., (1998) Cell Death Differ 5(12), 1062-75) using specific antibodies to p27^Kip (monoclonal; Pharmingen), IκB-α (polyclonal; Santa Cruz), ubiquitin (polyclonal; Sigma) or actin (polyclonal; Santa Cruz). In brief, Jurkat T or LNCaP cells are treated with EGCG or EGC in dose-response or time-dependent manner. Cells are harvested and lysated using the whole lysis buffer. Cell lysates (70 μg) are separated by a sodium dodecyl sulfate-polyacrylamide gel electrophoresis (SDS-PAGE) and then, electrophoretically transferred to a nitrocellulose membrane. Immunocomplexes are detected using the ECL detection reagents kit (Amersham, Piscataway, N.J.).

[2] = biological target: T1, purified calpain I (Homo sapiens, UniProt P07384); assay: Calpain I activity assay; type: biochemical; conditions: for inhibition of purified calpain I activity (in words): 10 μM, FIG. 16A
T1 construct: 3 μg purified calpain I (Human Erythrocytes, Calbiochem) is incubated; purchased Calbiochem; host or cells: human erythrocytes (tissue-purified)
T1 sequence (P07384 1-714): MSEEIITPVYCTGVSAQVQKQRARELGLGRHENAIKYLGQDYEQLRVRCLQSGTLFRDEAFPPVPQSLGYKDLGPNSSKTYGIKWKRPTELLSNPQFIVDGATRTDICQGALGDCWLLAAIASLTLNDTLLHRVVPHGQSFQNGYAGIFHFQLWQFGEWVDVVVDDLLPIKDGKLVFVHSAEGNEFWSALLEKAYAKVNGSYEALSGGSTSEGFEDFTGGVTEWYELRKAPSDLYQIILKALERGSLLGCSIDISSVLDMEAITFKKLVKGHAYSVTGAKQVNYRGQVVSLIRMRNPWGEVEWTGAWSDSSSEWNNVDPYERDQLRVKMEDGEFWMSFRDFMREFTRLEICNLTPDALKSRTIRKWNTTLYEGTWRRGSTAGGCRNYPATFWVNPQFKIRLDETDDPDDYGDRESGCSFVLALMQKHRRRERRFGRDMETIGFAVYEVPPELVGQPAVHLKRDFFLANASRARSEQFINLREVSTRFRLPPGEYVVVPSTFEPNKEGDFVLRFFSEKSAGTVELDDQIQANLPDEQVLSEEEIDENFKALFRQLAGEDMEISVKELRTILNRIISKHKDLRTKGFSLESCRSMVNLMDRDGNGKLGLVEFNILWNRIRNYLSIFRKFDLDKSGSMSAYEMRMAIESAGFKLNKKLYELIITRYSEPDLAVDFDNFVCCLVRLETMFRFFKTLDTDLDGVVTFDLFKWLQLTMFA
T1 sequence (P04632 1-268 partner): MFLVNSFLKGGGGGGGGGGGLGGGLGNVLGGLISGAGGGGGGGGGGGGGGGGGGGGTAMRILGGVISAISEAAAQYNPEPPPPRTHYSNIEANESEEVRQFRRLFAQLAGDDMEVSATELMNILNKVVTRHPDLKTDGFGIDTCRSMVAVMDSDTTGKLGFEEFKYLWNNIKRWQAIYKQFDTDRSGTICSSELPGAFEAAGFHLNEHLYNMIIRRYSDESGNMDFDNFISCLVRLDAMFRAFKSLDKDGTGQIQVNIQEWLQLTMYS
Description: FIG. 8. […] A). […] Initially, 0.5 μg of purified 20S proteasome is incubated with 20 μM of a fluorogenic peptide substrate, Suc-Leu-Leu-Val-Tyr-AMC, for 30 min at 37° C. in 100 μl of assay buffer (20 mM Tris-HCl, pH 8.0) with various concentrations of tannic acid. After incubation, the reaction mixture is diluted to 200 μl with the assay buffer, followed by measurement of the hydrolyzed 7-amido-4-methyl-coumarin (AMC) groups using a fluorometer with an excitation filter of 380 nm and an emission filter of 460 nm. B). […] Tannic acid (0.3 μg/ml) and Glucose (180 μg/ml) are used in the proteasome activity assay as described above. C). […] Purified calpain I (3 μg) protein is incubated with 40 μM of a fluorogenic peptide substrate, Suc-Leu-Tyr-AMC, for 30 min at 37° C. in 100 μl of assay buffer (50 mM Tris-HCl, pH 7.5, containing 50 mM NaCl, 1 mM EDTA, 1 mM EGTA, 5 mM β-Mercaptoethanol, 5 mM CaCl2, and 0.1% CHAPS) in the absence (control) or presence of 5 μg/ml of tannic acid or 0.18 μg/ml of calpeptin (calpain inhibitor).

[3] = Jurkat T cells, 25 μM EGCG, various times
[4] = cycloheximide-pretreated Jurkat T cells, 10 μM

| Structure (SMILES) | p27Kip and Bax levels ([1]; Jurkat T cells, tannic acid 50 μg/ml, 4, 12 or 24 h) | inhibition of calpain activity (in words) ([2]; tannic acid 5 μg/ml) | levels of IκB-α [1, 3] | levels of ubiquitinated proteins [1, 3] | levels of IκB protein [1, 4] | levels of p27 protein [1, 4] | level of p70 (putative ubiquitinated p27-containing protein) ([1]; cycloheximide-pretreated Jurkat T cells, co-incubation) | induction of IκB expression compared with LLnV ([1]; cycloheximide-pretreated Jurkat T cells, same concentration (10 μM)) | levels of p27 [1] | inhibition of purified calpain I activity (in words) [2] | inhibition of purified calpain activity (in words) ([2]; FIG. 3B: EGCG 10 μM, calpeptin 1 μM) |
| --- | --- | --- | --- | --- | --- | --- | --- | --- | --- | --- | --- |
| O=C(OC[C@H]1O[C@@H](OC(=O)c2cc(O)c(O)c(OC(=O)c3cc(O)c(O)c(O)c3)c2)[C@H](OC(=O)c2cc(O)c(O)c(OC(=O)c3cc(O)c(O)c(O)c3)c2)[C@@H](OC(=O)c2cc(O)c(O)c(OC(=O)c3cc(O)c(O)c(O)c3)c2)[C@@H]1OC(=O)c1cc(O)c(O)c(OC(=O)c2cc(O)c(O)c(O)c2)c1)c1cc(O)c(O)c(OC(=O)c2cc(O)c(O)c(O)c2)c1 [tannic acid] | induction | does not inhibit | – | – | – | – | – | – | – | – | – |
| O=C(O[C@@H]1Cc2c(O)cc(O)cc2O[C@@H]1c1cc(O)c(O)c(O)c1)c1cc(O)c(O)c(O)c1 [EGCG, (−)-epigallocatechin-3-gallate] | – | – | increases | increases | increases | dramatically increased | increase | even greater than that of the proteasome inhibitor LLnV | greatly increases | Neither EGCG nor EGC at 10 μM inhibits | but not EGCG, is able to inhibit |
| Oc1cc(O)c2c(c1)O[C@H](c1cc(O)c(O)c(O)c1)[C@H](O)C2 [EGC, (−)-epigallocatechin] | – | – | – | – | – | – | – | – | does not | Neither EGCG nor EGC at 10 μM inhibits | – |
